According to article PMC7914304 (Bioorganic & medicinal chemistry, 2020):
Like-named read-outs stand apart in the source and are kept apart here.

How the values were obtained:
logP by HPLC method = format: physicochemical
[1] = mice, oral, cited from earlier work

logP (logP by HPLC method) | SMILES | AUC ([1]; 0.3 mg/kg) [µM·h] | Cmax ([1]; 0.3 mg/kg) [nM] | T1/2 ([1]; 0.3 mg/kg) [h] | Tmax ([1]; 0.3 mg/kg) [h] | AUC ([1]; 0.5 mg/kg) [µM·h] | Cmax ([1]; 0.5 mg/kg) [nM] | T1/2 ([1]; 0.5 mg/kg) [h] | Tmax ([1]; 0.5 mg/kg) [h]
3.97 | CC[C@H](C)C(=O)N1CCC(NC(=O)Nc2ccc(OC(F)(F)F)cc2)CC1 [compound 3] | 2.53 | 195 | 7.7 | 4 |  |  |  | 
 | CC(=O)N1CCC(NC(=O)NC23CC4CC(CC(C4)C2)C3)CC1 [inhibitor 1] |  |  |  |  | 0.183 | 30 | 3 | 1
